Experimental data published in ChEMBL document CHEMBL1201862, “PubChem BioAssay data set” (2004).
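Cultured in 96-well plates, cells were exposed to test compound for 48 hours across five concentrations. GI50: concentration for 50% inhibition of growth.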 Calls of active or inactive are those of the source. No stated cut-off is given here; in the data, active = GI50 up to about 1.1 µM and inactive = higher.

Legend:
Test in all cases: growth of human tumour cells (NCI), 48 h
HCT-15 = test system: HCT-15
HCC 2998 = test system: HCC 2998
SK-MEL-2 = test system: SK-MEL-2
RXF 393 = test system: RXF 393
SNB-19 = test system: SNB-19
OVCAR-3 = test system: OVCAR-3
NCI-H460 = test system: NCI-H460
U-251 = test system: U-251
SR = test system: SR
TK-10 = test system: TK-10
SN12C = test system: SN12C
CAKI-1 = test system: CAKI-1
SK-MEL-28 = test system: SK-MEL-28
HOP-62 = test system: HOP-62
BT-549 = test system: BT-549
HCT-116 = test system: HCT-116
OVCAR-8 = test system: OVCAR-8
NCI-H522 = test system: NCI-H522
A498 = test system: A498

Compound	GI50 (HCT-15)	GI50 (HCC 2998)	GI50 (SK-MEL-2)	GI50 (RXF 393)	GI50 (SNB-19)	GI50 (OVCAR-3)	GI50 (NCI-H460)	GI50 (U-251)	GI50 (SR)	GI50 (TK-10)	GI50 (SN12C)	GI50 (CAKI-1)	GI50 (SK-MEL-28)	GI50 (HOP-62)	GI50 (BT-549)	GI50 (HCT-116)	GI50 (OVCAR-8)	GI50 (NCI-H522)	GI50 (A498)
[N-]=[N+]=Nc1c(Cl)c(=O)n(-c2ccccc2)c2ccccc12	20.7 µM	21.7 µM (inactive)	20.7 µM (inactive)	16.4 µM (inactive)	28.9 µM (inactive)	17.3 µM (inactive)	34.8 µM (inactive)	> 10 µM (inactive)	31.4 µM (inactive)	> 10 µM (inactive)	22 µM (inactive)	21.7 µM (inactive)	17.6 µM (inactive)	24 µM (inactive)	19.9 µM (inactive)	17.8 µM (inactive)			
Cc1cc(=O)oc2c(C)c3oc(CBr)c(Br)c3cc12	30.1 µM	19.3 µM (inactive)	36.1 µM (inactive)	19.8 µM (inactive)	31.6 µM (inactive)	> 100 µM (inactive)	18.9 µM (inactive)	31.1 µM (inactive)	27.7 µM (inactive)	56.4 µM (inactive)	20.1 µM (inactive)	17.2 µM (inactive)	44.4 µM (inactive)	27 µM (inactive)	29.3 µM (inactive)	26.9 µM (inactive)	24.7 µM (inactive)	14.7 µM (inactive)	
CC(C)(C)OC(=O)N1CCCC1C(=O)NCCNc1ccc(NCCNC(=O)C2CCCN2C(=O)OC(C)(C)C)c2c1C(=O)c1ccccc1C2=O (stereo unspecified)	13.9 µM	13 µM (inactive)	20.7 µM (inactive)		< 0.01 µM (active)	14.1 µM (inactive)		18.8 µM (inactive)	14.3 µM (inactive)	19.1 µM (inactive)		18.5 µM (inactive)	14.3 µM (inactive)	15.4 µM (inactive)	13 µM (inactive)	13.2 µM (inactive)	5.83 µM (inactive)	13 µM (inactive)	
COC1OC2COC(C)(C)OC2C2OC(C)(C)OC12 (stereo unspecified)	> 100 µM	> 100 µM (inactive)	> 100 µM (inactive)	23.7 µM (inactive)	21.8 µM (inactive)	> 100 µM (inactive)		24.5 µM (inactive)		49.8 µM (inactive)	21 µM (inactive)	14.6 µM (inactive)	> 100 µM (inactive)	21.7 µM (inactive)	> 100 µM (inactive)	> 100 µM (inactive)	55.7 µM (inactive)	> 100 µM (inactive)	55.2 µM (inactive)
O=C1C=CC(=C(c2ccccc2)c2ccc(O)cc2)C=C1	14.2 µM	31.1 µM (inactive)	15.8 µM (inactive)	14.2 µM (inactive)	13.8 µM (inactive)	16.2 µM (inactive)	17.3 µM (inactive)	12.4 µM (inactive)	7.45 µM (inactive)	19.2 µM (inactive)	13.6 µM (inactive)	17.3 µM (inactive)	16.1 µM (inactive)	21.9 µM (inactive)	6.03 µM (inactive)	50.5 µM (inactive)	16.9 µM (inactive)	13.7 µM (inactive)	
N#CCC1C2CC3C(C2=O)C13 (stereo unspecified)	> 100 µM	> 100 µM (inactive)	> 100 µM (inactive)	> 100 µM (inactive)	> 100 µM (inactive)	> 100 µM (inactive)	> 100 µM (inactive)	> 100 µM (inactive)	> 100 µM (inactive)	> 100 µM (inactive)	> 100 µM (inactive)	> 100 µM (inactive)	> 100 µM (inactive)	> 100 µM (inactive)		> 100 µM (inactive)	> 100 µM (inactive)	> 100 µM (inactive)	> 100 µM (inactive)
Cc1c(S(=O)(=O)N/C(=N\O)Nc2ccc(Cl)cc2)sc2ccc(Cl)cc12	16.6 µM		18.7 µM (inactive)	22.3 µM (inactive)	18.2 µM (inactive)	11.3 µM (inactive)	24.8 µM (inactive)	16.1 µM (inactive)		16.9 µM (inactive)	20.3 µM (inactive)	17.5 µM (inactive)	16.4 µM (inactive)	17.7 µM (inactive)	17.4 µM (inactive)	13.9 µM (inactive)	17.3 µM (inactive)	9.91 µM (inactive)	
COc1nc2ccc(CNc3ccc(C(=O)O)cc3)cc2nc1OC	> 10 µM	> 10 µM (inactive)	> 10 µM (inactive)	> 10 µM (inactive)	> 10 µM (inactive)	> 10 µM (inactive)	> 10 µM (inactive)	> 10 µM (inactive)		> 10 µM (inactive)	> 10 µM (inactive)	> 10 µM (inactive)	> 10 µM (inactive)	> 10 µM (inactive)	> 10 µM (inactive)	> 10 µM (inactive)	> 10 µM (inactive)	> 10 µM (inactive)	> 10 µM (inactive)
CCOC1C=CCCO1 (stereo unspecified)	> 100 µM	1.55 µM (inactive)	> 100 µM (inactive)	> 100 µM (inactive)	> 100 µM (inactive)	> 100 µM (inactive)	> 100 µM (inactive)		> 100 µM (inactive)	> 100 µM (inactive)	> 100 µM (inactive)	> 100 µM (inactive)	> 100 µM (inactive)	> 100 µM (inactive)		> 100 µM (inactive)	> 100 µM (inactive)	> 100 µM (inactive)	> 100 µM (inactive)
Cc1cc2nc3ccccc3n2c2ccccc12	> 10 µM	> 10 µM (inactive)	> 10 µM (inactive)	> 10 µM (inactive)	> 10 µM (inactive)	> 10 µM (inactive)	4.3 µM (inactive)	> 10 µM (inactive)	> 10 µM (inactive)	> 10 µM (inactive)	> 10 µM (inactive)	> 10 µM (inactive)	> 10 µM (inactive)	> 10 µM (inactive)		> 10 µM (inactive)	> 10 µM (inactive)	> 10 µM (inactive)	
COC(=O)c1cc(C(=O)OC)cc(-c2ccc3c(c2)-c2nc4c(c(-c5ccc(OC)cc5)c2CC3)CCc2ccc(-c3cc(C(=O)OC)cc(C(=O)OC)c3)cc2-4)c1	> 100 µM	> 100 µM (inactive)	> 100 µM (inactive)		> 100 µM (inactive)	> 100 µM (inactive)	> 100 µM (inactive)	> 100 µM (inactive)		> 100 µM (inactive)	> 100 µM (inactive)	> 100 µM (inactive)	> 100 µM (inactive)	> 100 µM (inactive)	> 100 µM (inactive)	> 100 µM (inactive)		> 100 µM (inactive)	> 100 µM (inactive)
CCOC(=O)c1nc[nH]c1/N=N/N(C)N	91.4 µM	> 100 µM (inactive)	> 100 µM (inactive)	> 100 µM (inactive)		> 100 µM (inactive)	25.3 µM (inactive)	65 µM (inactive)		> 100 µM (inactive)	> 100 µM (inactive)	15.4 µM (inactive)	> 100 µM (inactive)	> 100 µM (inactive)	> 100 µM (inactive)	> 100 µM (inactive)	> 100 µM (inactive)	22.4 µM (inactive)	40.6 µM (inactive)
Cc1cccc(Nc2cn(CCOc3ccccc3)c(=O)[nH]c2=O)c1	49.9 µM	24.8 µM (inactive)		34.8 µM (inactive)	97.1 µM (inactive)	18.7 µM (inactive)	32.7 µM (inactive)	33.7 µM (inactive)	> 100 µM (inactive)		24.6 µM (inactive)	41.2 µM (inactive)	29.5 µM (inactive)	29.8 µM (inactive)		27.5 µM (inactive)			> 100 µM (inactive)
CC(C)C1CN1CC(O)Cn1ccnc1[N+](=O)[O-] (stereo unspecified)	> 100 µM	> 100 µM (inactive)	> 100 µM (inactive)		> 100 µM (inactive)	> 100 µM (inactive)	> 100 µM (inactive)	> 100 µM (inactive)		> 100 µM (inactive)	> 100 µM (inactive)	> 100 µM (inactive)	> 100 µM (inactive)	> 100 µM (inactive)	> 100 µM (inactive)	> 100 µM (inactive)	> 100 µM (inactive)	> 100 µM (inactive)	> 100 µM (inactive)
O=C(NC/C=C/Br)NC1CCNc2ccccc21 (stereo unspecified)	37.3 µM	27.9 µM (inactive)	30.1 µM (inactive)	29.2 µM (inactive)	41.3 µM (inactive)	47.2 µM (inactive)	34.9 µM (inactive)	73.8 µM (inactive)	35 µM (inactive)	42.3 µM (inactive)	45.4 µM (inactive)	42.1 µM (inactive)	33.7 µM (inactive)	45.2 µM (inactive)		30.1 µM (inactive)	52.7 µM (inactive)	74 µM (inactive)	31.9 µM (inactive)
CC(C)=C=CP(=O)(O)c1ccccc1	> 100 µM	> 100 µM (inactive)	> 100 µM (inactive)		> 100 µM (inactive)	> 100 µM (inactive)	> 100 µM (inactive)	> 100 µM (inactive)	> 100 µM (inactive)	> 100 µM (inactive)	> 100 µM (inactive)	> 100 µM (inactive)	> 100 µM (inactive)	> 100 µM (inactive)		> 100 µM (inactive)	> 100 µM (inactive)	> 100 µM (inactive)	> 100 µM (inactive)
O=C(c1ccccc1)n1cc(-c2ccccc2)c2c(=O)nc[nH]c21	> 100 µM	> 100 µM (inactive)	> 100 µM (inactive)	> 100 µM (inactive)	> 100 µM (inactive)	> 100 µM (inactive)		> 100 µM (inactive)		> 100 µM (inactive)	> 100 µM (inactive)	> 100 µM (inactive)	> 100 µM (inactive)	> 100 µM (inactive)	> 100 µM (inactive)	> 100 µM (inactive)	> 100 µM (inactive)	> 100 µM (inactive)	> 100 µM (inactive)
